Values quoted from earlier work in patent US20210145863A1, “LUBRICATED SUBSTRATES COMPRISING LAMBDA-CARRAGEENAN” (priority 2018, published 2021).

System: HPV
Details: in vitro (Buck, C. B., et al.)

lambda-carrageenan
Activity against HPV: active
